Like-named read-outs stand apart in the source and are kept apart here.
Columns and labels:
[1] = test system: hiPSC-CM (iCell Cardiomyocytes^2); assay: Intracellular miRNA expression by RT-qPCR in hiPSC-CM pellets after 72-hour treatment; conditions: for fold induction at 0.01 µM / fold induction at 0.03 µM / fold induction at 0.1 µM / fold induction at 0.3 µM / fold induction at 1 µM / fold induction at 3 µM: Homo sapiens
Summary of the method: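 After 72-hour treatment and RTCA CardioECR assessment, total RNA from hiPSC-CM pellets was reverse transcribed, pre-amplified and quantified by TaqMan RT-qPCR against a 17-miRNA panel. Triplicates were pooled, so no statistical analysis was performed.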

[2] = ref extensive literature search, cited from earlier work
[3] = test system: hiPSC-CM (iCell Cardiomyocytes^2); assay: RTCA CardioECR assessment (impedance and electrophysiology parameters)
Summary of the method: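 iCell^2 cardiomyocytes on fibronectin-coated ePlates monitored continuously by impedance for cell index, beating rate and amplitude. Field potential duration and spike amplitude were recorded from day 4–6 after monolayer formation. Data were double-normalized to DMSO control and baseline, with variability given as SD.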

[4] = lowest concentration tested which produced miRNA upregulation (fold change ≥2), 72 h
[5] = hiPSC-CM, 72-hour treatment, lowest concentration causing at least 20% change from baseline
[6] = 72 h, read-out: hsa-miR-7-5p fold change
[7] = 72 h, read-out: hsa-miR-126-3p fold change
[8] = 72 h, read-out: hsa-miR-146b-5p fold change
[9] = 72 h, read-out: hsa-miR-182-5p fold change
[10] = 72 h, read-out: hsa-miR-185-3p fold change
[11] = 72 h, read-out: hsa-miR-187-3p fold change
[12] = 72 h, read-out: hsa-miR-208b-3p fold change
[13] = 72 h, read-out: hsa-miR-[…] change
[14] = 72 h, read-out: hsa-miR-29a-5p fold change
[15] = 72 h, read-out: hsa-miR-96-5p fold change
[16] = 72 h, read-out: hsa-miR-133b fold change
[17] = 72 h, read-out: hsa-miR-365a-5p fold change

CCN(CC)CCNC(=O)c1c(C)[nH]c(/C=C2\C(=O)Nc3ccc(F)cc32)c1C [Sunitinib]
miRNAs hiPSC-CM pellet, MEC overall [1, 4]: 0.01 µM
Cmax total ([2]; Supplementary Table 1): 181 to 250 nM
Cmax total ([2]; Table 1): 180 to 250 nM
Beating Rate MEC ([3]; hiPSC-CM, 72-hour treatment, at least 20% change, Supplementary Table 1): 1 µM
Beating rate (BR) MEC [3, 5]: 1 µM
RTCA, MEC (BR) ([3]; hiPSC-CM, change ≥20%, Table 2): 1 µM (BR)
Spike Amplitude (SA) MEC ([3]; human, 72 h): 0.01 µM

CCCCCNC(=N)N/N=C/c1c[nH]c2ccc(OC)cc12 [Tegaserod]
fold induction at 0.01 µM [1, 6]: 0.8
fold induction at 0.03 µM [1, 6]: 1.4
fold induction at 0.1 µM [1, 6]: 1.3
fold induction at 0.3 µM [1, 6]: 2
fold induction at 0.01 µM [1, 7]: 2
fold induction at 0.03 µM [1, 7]: 4.9
fold induction at 0.1 µM [1, 7]: 0.9
fold induction at 0.3 µM [1, 7]: 3.2
fold induction at 0.01 µM [1, 8]: 0.5
fold induction at 0.03 µM [1, 8]: 0.7
fold induction at 0.1 µM [1, 8]: 1.2
fold induction at 0.3 µM [1, 8]: 0.9
fold induction at 0.01 µM [1, 9]: 1.8
fold induction at 0.03 µM [1, 9]: 3.9
fold induction at 0.1 µM [1, 9]: 1.9
fold induction at 0.3 µM [1, 9]: 15.7
fold induction at 0.01 µM [1, 10]: 0.7
fold induction at 0.03 µM [1, 10]: 1.3
fold induction at 0.1 µM [1, 10]: 0.9
fold induction at 0.3 µM [1, 10]: 1
fold induction at 0.01 µM [1, 11]: 2.5
fold induction at 0.03 µM [1, 11]: 2
fold induction at 0.1 µM [1, 11]: 2
fold induction at 0.3 µM [1, 11]: 3.7
fold induction at 0.01 µM [1, 12]: 1.8
fold induction at 0.03 µM [1, 12]: 1.2
fold induction at 0.1 µM [1, 12]: 1.7
fold induction at 0.3 µM [1, 12]: 1.4
fold induction at 0.01 µM [1, 13]: 0.8
fold induction at 0.03 µM [1, 13]: 0.8
fold induction at 0.1 µM [1, 13]: 0.9
fold induction at 0.3 µM [1, 13]: 0.7
miRNAs upregulated at the MEC overall (hiPSC-CM pellet) ([1]; fold change ≥2, 72 h): miR-126-3p, miR-187-3p
miRNAs hiPSC-CM pellet, MEC overall [1, 4]: 0.01 µM
Cmax total ([2]; Supplementary Table 1): 80 nM
Cmax total ([2]; Table 1): 80 nM
Field Potential Duration MEC ([3]; hiPSC-CM, 72-hour treatment, at least 10% change): 0.1 µM
Beating rate (BR) MEC [3, 5]: ND (ND – not detected, magnitude of change was lower than 20%)
Cell index (CI) MEC [3, 5]: ND (ND – not detected, magnitude of change was lower than 20%)
RTCA, MEC (BR) ([3]; hiPSC-CM, change ≥20%, Table 2): ND (ND – not detected, magnitude of change was lower than 20% for CI/BR)
RTCA, MEC (CI) ([3]; hiPSC-CM, change ≥20%, Table 2): ND (ND – not detected, magnitude of change was lower than 20% for CI/BR)
Spike Amplitude (SA) MEC ([3]; human, 72 h): 0.01 µM

CCC1=C[C@@H]2CN(C1)Cc1c([nH]c3ccccc13)[C@@](C(=O)OC)(c1cc3c(cc1OC)N(C)[C@H]1[C@@](O)(C(=O)OC)[C@H](OC(C)=O)[C@]4(CC)C=CCN5CC[C@]31[C@@H]54)C2 [Vinorelbine]
intracellular miRNA upregulation in hiPSC-CM, in words [1]: smallest fold change
miRNAs hiPSC-CM pellet, MEC overall [1]: 0.1 µM
miRNAs upregulated at the MEC overall (hiPSC-CM pellet) [1]: miR-34a-5p, miR-146b-5p
fold induction at 0.1 µM [1, 6]: 1
fold induction at 0.3 µM [1, 6]: 1.4
fold induction at 1 µM [1, 6]: 0.9
fold induction at 3 µM [1, 6]: 1.8
fold induction at 0.1 µM [1, 14]: 0.4
fold induction at 0.3 µM [1, 14]: 1.1
fold induction at 1 µM [1, 14]: 0.2
fold induction at 3 µM [1, 14]: 0.9
fold induction at 0.1 µM [1, 15]: 1.3
fold induction at 0.3 µM [1, 15]: 4.8
fold induction at 1 µM [1, 15]: 0.9
fold induction at 0.1 µM [1, 7]: 1.4
fold induction at 0.3 µM [1, 7]: 2
fold induction at 1 µM [1, 7]: 0.6
fold induction at 3 µM [1, 7]: 0.2
fold induction at 0.1 µM [1, 16]: 0.1
fold induction at 0.3 µM [1, 16]: 0.2
fold induction at 1 µM [1, 16]: 0.3
fold induction at 3 µM [1, 16]: 0.1
fold induction at 0.1 µM [1, 8]: 3.1
fold induction at 0.3 µM [1, 8]: 1.1
fold induction at 1 µM [1, 8]: 0.1
fold induction at 3 µM [1, 8]: 0.2
fold induction at 0.1 µM [1, 9]: 0.7
fold induction at 1 µM [1, 9]: 0.1
fold induction at 0.1 µM [1, 10]: 1.2
fold induction at 0.3 µM [1, 10]: 1.9
fold induction at 1 µM [1, 10]: 0.9
fold induction at 3 µM [1, 10]: 0.6
fold induction at 0.1 µM [1, 11]: 1.1
fold induction at 0.3 µM [1, 11]: 0.9
fold induction at 1 µM [1, 11]: 0.8
fold induction at 3 µM [1, 11]: 0.3
fold induction at 0.1 µM [1, 12]: 0.8
fold induction at 0.3 µM [1, 12]: 1.7
fold induction at 1 µM [1, 12]: 0.7
fold induction at 3 µM [1, 12]: 0.8
fold induction at 0.3 µM [1, 17]: 2.4
fold induction at 1 µM [1, 17]: 0.1
Cmax total ([2]; Supplementary Table 1): 811 nM
Cmax total ([2]; Table 1): 810 nM
Cell index (CI) MEC [3, 5]: 0.1 µM
RTCA, MEC (CI) ([3]; hiPSC-CM, change ≥20%, Table 2): 0.1 µM
Beating Rate MEC ([3]; human, 72 h): 1 µM
Beating rate (BR) MEC ([3]; human, 72 h): 1 µM
Cell Index MEC ([3]; human, 72 h): 0.1 µM
Contractility Amplitude MEC ([3]; human, 72 h): 0.1 µM
Field Potential Duration MEC ([3]; human, 72 h): 1 µM
RTCA, MEC (BR) ([3]; human, 72 h): 1 µM
Spike Amplitude (SA) MEC ([3]; human, 72 h): 0.1 µM
